Some targets named below: PIK3CG (human) (UniProt P48736); PIK3CB (Human) (UniProt P42338); PIK3CA (human) (UniProt P42336); PIK3CD (Human) (UniProt O00329); EGFR (human) (UniProt P00533).
A further experiment has as its target MAPK14 (human) (UniProt Q16539). The settings on record: concentration not given here.
The next experiment has as its target CDK2 (human) (UniProt P24941). The settings on record: for inhibition: concentration not given here.

This note sets out measurements from the Kinase Knowledgebase extract (Sharma et al. 2016).

Structures are written as SMILES.

Sequence of PIK3CB (Human) (P42338 whole entry, looked up): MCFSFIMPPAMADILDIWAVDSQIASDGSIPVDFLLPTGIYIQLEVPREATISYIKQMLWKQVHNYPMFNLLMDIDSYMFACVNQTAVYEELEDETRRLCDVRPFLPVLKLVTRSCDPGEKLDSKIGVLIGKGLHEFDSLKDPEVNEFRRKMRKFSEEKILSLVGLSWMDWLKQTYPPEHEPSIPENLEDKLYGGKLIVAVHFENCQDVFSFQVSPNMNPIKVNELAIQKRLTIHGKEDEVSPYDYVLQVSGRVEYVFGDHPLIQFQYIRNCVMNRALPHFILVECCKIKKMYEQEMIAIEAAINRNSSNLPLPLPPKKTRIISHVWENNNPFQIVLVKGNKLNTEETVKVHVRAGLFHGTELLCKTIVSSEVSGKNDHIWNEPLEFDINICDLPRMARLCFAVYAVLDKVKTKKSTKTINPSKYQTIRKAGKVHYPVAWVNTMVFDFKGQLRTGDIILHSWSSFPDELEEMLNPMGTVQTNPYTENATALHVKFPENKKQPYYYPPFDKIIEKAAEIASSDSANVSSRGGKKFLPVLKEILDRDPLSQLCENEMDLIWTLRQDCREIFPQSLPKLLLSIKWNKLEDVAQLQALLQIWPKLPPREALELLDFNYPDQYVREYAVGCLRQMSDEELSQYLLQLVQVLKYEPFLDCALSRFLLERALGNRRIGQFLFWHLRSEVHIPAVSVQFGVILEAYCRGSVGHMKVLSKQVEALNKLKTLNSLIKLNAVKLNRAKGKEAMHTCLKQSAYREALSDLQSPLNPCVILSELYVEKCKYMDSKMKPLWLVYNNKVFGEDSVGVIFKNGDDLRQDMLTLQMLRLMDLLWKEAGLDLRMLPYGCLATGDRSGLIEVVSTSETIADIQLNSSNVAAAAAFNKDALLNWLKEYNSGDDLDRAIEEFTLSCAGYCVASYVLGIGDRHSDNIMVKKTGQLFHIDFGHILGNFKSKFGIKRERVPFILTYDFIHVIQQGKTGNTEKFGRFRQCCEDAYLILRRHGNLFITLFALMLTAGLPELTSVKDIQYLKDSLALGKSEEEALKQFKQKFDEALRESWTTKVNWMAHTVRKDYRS
Sequence of PIK3CA (human) (P42336 whole entry, looked up): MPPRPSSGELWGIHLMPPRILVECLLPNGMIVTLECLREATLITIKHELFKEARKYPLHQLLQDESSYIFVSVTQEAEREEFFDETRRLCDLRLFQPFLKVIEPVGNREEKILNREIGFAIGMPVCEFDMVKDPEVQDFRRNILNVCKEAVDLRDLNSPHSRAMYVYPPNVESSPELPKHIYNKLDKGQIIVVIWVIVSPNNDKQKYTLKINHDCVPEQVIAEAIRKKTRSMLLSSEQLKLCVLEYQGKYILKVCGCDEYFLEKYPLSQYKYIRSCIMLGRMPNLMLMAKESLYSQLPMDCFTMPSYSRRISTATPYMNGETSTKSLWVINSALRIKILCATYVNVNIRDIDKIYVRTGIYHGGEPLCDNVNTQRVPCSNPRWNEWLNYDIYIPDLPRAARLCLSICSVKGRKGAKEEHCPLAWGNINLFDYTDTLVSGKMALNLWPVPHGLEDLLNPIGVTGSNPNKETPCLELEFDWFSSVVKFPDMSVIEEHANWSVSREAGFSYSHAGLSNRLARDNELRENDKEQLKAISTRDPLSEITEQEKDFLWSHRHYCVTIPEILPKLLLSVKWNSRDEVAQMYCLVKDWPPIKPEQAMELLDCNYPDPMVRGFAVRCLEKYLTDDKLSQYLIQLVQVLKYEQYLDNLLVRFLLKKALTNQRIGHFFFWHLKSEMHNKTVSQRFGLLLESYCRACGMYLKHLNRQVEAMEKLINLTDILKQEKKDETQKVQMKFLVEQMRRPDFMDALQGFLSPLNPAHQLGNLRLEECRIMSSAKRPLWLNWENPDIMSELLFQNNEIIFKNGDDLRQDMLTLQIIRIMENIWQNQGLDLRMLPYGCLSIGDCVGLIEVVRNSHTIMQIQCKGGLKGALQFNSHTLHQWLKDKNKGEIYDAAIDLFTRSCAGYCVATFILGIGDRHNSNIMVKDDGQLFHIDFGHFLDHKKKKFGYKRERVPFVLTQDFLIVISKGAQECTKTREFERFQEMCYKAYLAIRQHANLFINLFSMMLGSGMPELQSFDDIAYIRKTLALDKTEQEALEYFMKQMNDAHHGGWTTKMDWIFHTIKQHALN
Sequence of PIK3CG (human) (P48736 whole entry, looked up): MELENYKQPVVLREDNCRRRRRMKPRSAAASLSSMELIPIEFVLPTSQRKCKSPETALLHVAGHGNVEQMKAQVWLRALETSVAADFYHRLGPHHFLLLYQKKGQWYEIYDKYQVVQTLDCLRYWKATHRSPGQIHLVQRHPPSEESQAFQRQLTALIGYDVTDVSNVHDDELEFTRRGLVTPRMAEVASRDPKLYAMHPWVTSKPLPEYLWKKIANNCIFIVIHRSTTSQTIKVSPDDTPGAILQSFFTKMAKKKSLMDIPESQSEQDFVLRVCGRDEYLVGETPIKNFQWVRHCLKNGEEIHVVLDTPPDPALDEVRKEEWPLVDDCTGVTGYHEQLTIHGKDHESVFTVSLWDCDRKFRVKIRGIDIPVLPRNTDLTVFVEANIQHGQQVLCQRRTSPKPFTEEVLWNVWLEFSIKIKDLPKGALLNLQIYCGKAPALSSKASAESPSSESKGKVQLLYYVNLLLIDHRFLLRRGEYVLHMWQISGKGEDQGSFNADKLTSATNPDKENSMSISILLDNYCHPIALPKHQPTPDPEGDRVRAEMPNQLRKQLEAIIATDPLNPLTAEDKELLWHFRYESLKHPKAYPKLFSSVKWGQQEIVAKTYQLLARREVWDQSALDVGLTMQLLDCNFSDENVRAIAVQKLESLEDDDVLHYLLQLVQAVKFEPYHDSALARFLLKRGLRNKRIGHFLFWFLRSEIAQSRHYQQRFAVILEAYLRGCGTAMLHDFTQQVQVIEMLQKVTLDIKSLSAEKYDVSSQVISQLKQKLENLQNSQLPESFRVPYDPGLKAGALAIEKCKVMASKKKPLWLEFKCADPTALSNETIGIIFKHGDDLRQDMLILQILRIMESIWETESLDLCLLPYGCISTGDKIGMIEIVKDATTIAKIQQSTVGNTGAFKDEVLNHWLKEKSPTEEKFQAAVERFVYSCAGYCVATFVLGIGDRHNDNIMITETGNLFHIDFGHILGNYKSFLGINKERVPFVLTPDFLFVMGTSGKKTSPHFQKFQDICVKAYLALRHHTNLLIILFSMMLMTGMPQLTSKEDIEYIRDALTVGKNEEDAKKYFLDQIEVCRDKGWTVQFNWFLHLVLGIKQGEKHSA
Sequence of EGFR (human) (P00533 whole entry, looked up): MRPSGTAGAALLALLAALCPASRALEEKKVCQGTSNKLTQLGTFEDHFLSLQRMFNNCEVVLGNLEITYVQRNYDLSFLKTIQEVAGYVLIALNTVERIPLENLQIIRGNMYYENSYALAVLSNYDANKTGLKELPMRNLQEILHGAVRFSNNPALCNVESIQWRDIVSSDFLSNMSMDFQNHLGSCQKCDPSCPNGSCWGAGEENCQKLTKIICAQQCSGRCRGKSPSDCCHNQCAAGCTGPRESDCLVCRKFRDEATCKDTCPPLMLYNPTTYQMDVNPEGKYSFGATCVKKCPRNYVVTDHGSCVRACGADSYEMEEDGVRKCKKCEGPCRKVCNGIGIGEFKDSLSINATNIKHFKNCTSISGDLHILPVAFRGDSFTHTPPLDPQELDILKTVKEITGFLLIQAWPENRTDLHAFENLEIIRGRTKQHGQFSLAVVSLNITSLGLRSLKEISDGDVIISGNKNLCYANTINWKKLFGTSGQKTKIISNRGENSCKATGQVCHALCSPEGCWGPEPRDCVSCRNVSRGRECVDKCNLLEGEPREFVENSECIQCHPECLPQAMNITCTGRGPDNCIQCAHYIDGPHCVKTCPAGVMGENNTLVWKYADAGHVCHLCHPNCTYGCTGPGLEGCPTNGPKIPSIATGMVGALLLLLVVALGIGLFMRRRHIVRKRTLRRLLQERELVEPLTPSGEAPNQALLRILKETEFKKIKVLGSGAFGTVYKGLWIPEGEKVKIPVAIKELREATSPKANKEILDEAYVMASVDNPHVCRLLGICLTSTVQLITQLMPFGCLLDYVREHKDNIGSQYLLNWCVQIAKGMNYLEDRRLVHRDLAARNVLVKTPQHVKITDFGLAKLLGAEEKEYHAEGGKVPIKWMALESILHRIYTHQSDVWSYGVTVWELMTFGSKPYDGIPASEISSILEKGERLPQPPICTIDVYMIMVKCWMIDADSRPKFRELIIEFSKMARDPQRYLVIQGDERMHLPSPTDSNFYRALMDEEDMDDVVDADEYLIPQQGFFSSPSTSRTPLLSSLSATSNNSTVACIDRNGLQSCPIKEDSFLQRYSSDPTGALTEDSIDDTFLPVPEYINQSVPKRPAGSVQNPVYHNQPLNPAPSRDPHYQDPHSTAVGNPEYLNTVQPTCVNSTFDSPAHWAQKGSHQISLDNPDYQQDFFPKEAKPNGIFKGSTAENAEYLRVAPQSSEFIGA
Sequence of MAPK14 (human) (Q16539 whole entry, looked up): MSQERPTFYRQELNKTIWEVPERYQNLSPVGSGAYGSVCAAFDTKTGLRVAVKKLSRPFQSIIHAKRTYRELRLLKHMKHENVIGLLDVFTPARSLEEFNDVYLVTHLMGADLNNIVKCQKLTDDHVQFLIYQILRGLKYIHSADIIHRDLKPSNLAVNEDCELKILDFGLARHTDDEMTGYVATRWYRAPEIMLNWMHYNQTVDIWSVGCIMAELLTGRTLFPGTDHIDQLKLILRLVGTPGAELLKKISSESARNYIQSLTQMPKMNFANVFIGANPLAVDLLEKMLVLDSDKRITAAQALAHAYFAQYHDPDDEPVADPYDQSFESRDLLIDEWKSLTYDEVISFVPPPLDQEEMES

`Cc1ccccc1Oc1cccc2c(=O)cc(N3CCOCC3)[nH]c12` returned a concentration for half-maximal inhibition (IC50) against PIK3CG (human) of 100 µM. Besides, the inhibition against MAPK14 (human) was -1.2%; on CDK2 (human) it was -5.3%.
`Cc1cc(C(C)Nc2ccccc2)c2oc(-c3ccncc3)cc(=O)c2c1` (stereo unspecified) returned an IC50 against PIK3CB (Human) of 0.12 µM. In addition, the inhibition on MAPK14 (human) is -0.9%; against CDK2 (human) it was -3.1%.
`O=C(c1ccccc1)c1ccc(N2CCOCC2)cc1O`: the results for the inhibition on MAPK14 (human) and against CDK2 (human) were -2.8% and 0.3%, respectively.
For `CC(C)n1nc(-c2ccc3onc(N)c3c2)c2c(N)ncnc21`, the IC50 on PIK3CB (Human) was 1 to 50 µM; on PIK3CA (human), less than 1 µM; at PIK3CD (Human) it was less than 1 µM; against PIK3CG (human), less than 1 µM; against EGFR (human) it was 1 to 50 µM.
As for `Oc1cccc(-c2nc(N3CCOCC3)c3oc4ncccc4c3n2)c1`, the inhibition on MAPK14 (human) is 0.2%; against CDK2 (human), 1.5%.
The compound `O=C1NC(=S)S/C1=C/c1ccc2c(c1)N(Cc1ccc(F)c(Cl)c1)C(=O)CO2` had an IC50 at PIK3CB (Human) of 1.1 µM. The inhibition against MAPK14 (human) was -2.6%; on CDK2 (human), -4.9%.
For `CC(=O)Nc1nc(C)c(-c2ccc(Cl)c(S(=O)(=O)NCCO)c2)s1` the same measures were 0.59 µM, -2.9% and 1.9%.
Turning to `CC(C)n1cc(-c2cc3cc(C=O)ccc3s2)c2c(N)ncnc21`, the IC50 against PIK3CB (Human) is 1 to 50 µM; against PIK3CA (human) it was 1 to 50 µM; at PIK3CD (Human), 1 to 50 µM; against PIK3CG (human) it was 1 to 50 µM; against EGFR (human), greater than 50 µM.
In the case of `Cc1ccc([N+](=O)[O-])cc1S(=O)(=O)N(C)N=Cc1cnc2ccc(Br)cn12`, the figures for the 50% inhibitory concentration (IC50) against PIK3CG (human) and against CDK2 (human) were 0.076 µM and 1.2 µM, respectively. The inhibition against MAPK14 (human) was -0.3%.
Regarding `COc1ccccc1-n1c(CSc2ncnc3[nH]cnc23)nc2cccc(Cl)c2c1=O`, the figures for the inhibition against MAPK14 (human) and against CDK2 (human) were -8.5% and -5.6%, respectively.
Regarding `O=c1cc(-c2cccc3c2Sc2ccccc2S3)oc(N2CCOCC2)c1`, the IC50 against PIK3CB (Human) came to 1.2 µM; on PIK3CA (human), 3.3 µM; against PIK3CD (Human) it was 0.72 µM; against PIK3CG (human), 9.9 µM. Moreover, the inhibition is -1.4% on MAPK14 (human) and 2.6% against CDK2 (human).
As to `CC(C)n1nc(-c2cccc(C(=O)NC3C=NCS3)c2)c2c(N)ncnc21` (stereo unspecified), the IC50 was 1 to 50 µM against PIK3CB (Human); 1 to 50 µM on PIK3CA (human); less than 1 µM at PIK3CD (Human); less than 1 µM on PIK3CG (human); less than 1 µM at EGFR (human).
For the compound `CC(C)n1nc(-c2ccc(I)cc2)c2c(N)ncnc21`, the 50% inhibitory concentration (IC50) was 1 to 50 µM on PIK3CB (Human); 1 to 50 µM against PIK3CA (human); less than 1 µM on PIK3CD (Human); 1 to 50 µM at PIK3CG (human); 1 to 50 µM against EGFR (human).
In the case of `Cc1ccccc1-n1c(Cn2ncc3c(N)ncnc32)nc2cccc(C)c2c1=O`, the IC50 at PIK3CB (Human) is 25 µM; at PIK3CA (human), 100 µM; at PIK3CD (Human), 0.24 µM; against PIK3CG (human), 10 µM.
Turning to `Cc1ccccc1-n1c(Cn2cnc3c(N)ncnc32)nc2cccc(C)c2c1=O`, the inhibition on MAPK14 (human) is -4.1%; on CDK2 (human), -2.4%.
For `COc1ccc2c(c1OC)N=C(NC(=O)c1cccnc1)N1CCN=C21`, the figures for the inhibition on MAPK14 (human) and against CDK2 (human) were 1.5% and -0.9%, respectively. Also, on EGFR (human), the IC50 is greater than 50 µM.
